Columns and labels:
Assay type in all cases: binding
cyclic RGD peptide [1] = assay: STM experiment, gold probe functionalized with RGD peptide over bare gold substrate; details: 100 nM protein, starting gap 2.7 nm
Text: Accordingly, in some embodiments, functionalizing just one of a pair of electrodes generates a unique electrical recognition signal for a corresponding molecule(s). To do this, a scanning tunneling microscope (STM) was used (see STM, FIG. 5A), where a gold probe 51 was functionalized with the RGD peptide 53 via the chemical interaction between the cysteine residue and the gold. The probe was positioned at a set point bias (V) and current (I) such that the apex of the probe was held approximately 2.7 nm above a bare gold substrate, 52. As the probe was pulled away an extra distance ΔZ from the surface, a decaying current could be observed during some of the experiments (e.g., feature 57 in FIG. 5B). However, in the absence of the αVβ3 integrin, no other features were observed, even if fairly high concentrations (e.g., 100 nM) of a protein such as BSA were added to the solution in the STM. Once 100 nM αVβ3 integrin 56 was added to the solution, a new feature appeared as a current peak away from the origin 58 in FIG. 5B.
In contrast to conventional tunneling signals, these signals peak when the probe is some distance away from the surface, signifying that the probe has captured a conductive particle.

cyclic RGD peptide [2] = assay: Nanopore (approximately 12 nm) junction device functionalized with cyclic RGD peptide
Protocol: Accordingly, in some embodiments, the background signal corresponds to the number of molecules adsorbed on the electrodes. This can be substantiated by collecting signals from a device small enough to allow only one integrin molecule to be trapped. In such a device, experiments were performed where the electrode edges were exposed by drilling a nanopore of approximately 12 nm diameter through the junction device. The electrodes were functionalized again with the cyclic RGD peptide. […] However, when 1 nM αVβ3 integrin is added a signal is generated (FIG. 11). […] This is because there is room for only one molecule at a time in the device, and this confirms that, in some embodiments, the background current arises from adsorption of many molecules.

cyclic RGD peptide [3] = assay: Fixed-gap (5 nm) MEMED tunnel chip functionalized with cyclic RGD peptide; design: signal in fixed-gap device: dose or concentration left out as unconfirmed
Protocol: A fixed gap tunneling device has significant advantages over STM measurements. […] It is fabricated much as described in our earlier paper. The basic fabrication of the layered device (10 nm Pd, 4 to 5 nm Al2O3 followed by 10 nm Pd, resting on top of a 25 nm SiN substrate and passivated on top with SiO2) was carried out by Norcada Inc. (Edmonton, Alberta). Our original devices had large (micron-scale) openings, but it was desired to restrict the region over which proteins could be captured to dimensions small enough that the capture of multiple molecules in the tunnel junction was unlikely (illustrated schematically by the capture of a single integrin in FIG. 16A). RIE was used to thin the underlying SiN substrate to ˜15 nm, followed by e-beam lithography using a hard mask and further RIE etching (FIG. 16C and Methods). In this way, slits were produced that were 50 to 100 nm across and up to 400 nm long, though the active area was defined by the top electrode widths of about 100 nm (FIG. 16C). After cleaning and functionalization (Methods) the device was immersed in 1 mM phosphate buffer (pH=7.4) with the electrode potentials controlled with respect to an Ag/AgCl electrode coupled via a salt bridge (SB in FIG. 16A).
Our devices often suffer from failure of the passivation layer (SiO2 in FIG. 16B) so that, even in the dilute electrolyte, leakage currents can be substantial (e.g., a few nA, FIG. 16D). […] Thus, these are currents that pass from exposed regions of the top electrodes via the electrolyte, and they are not a consequence of tunneling or electrochemical leakage across the tunnel gap itself. These leakage currents (FIG. 16D) show no distinctive features beyond the shot- and system electronic noise (distributed as a Gaussian, FIG. 16E). When […] α1β4 protein was added (FIG. 16F) the background current falls a little, presumably because of passivation of the exposed electrodes by non-specific adsorption of this protein. Once again, the signal is featureless, displaying the same intrinsic noise as observed in buffer alone (FIG. 16G). (In contrast to the STM measurements, no features have been observed in the fixed-gap devices in any measurement taken in the presence of α1β4.) However, once αVβ3 protein is added to the same device, dramatic jumps occur in the current (FIG. 16H). The background leakage current is reduced by about 20% on addition of the protein, consistent with the passivation effect seen in the macroscopic electrochemical measurements (FIGS. 14B, 14C). The signal jumps up from the baseline to two well defined levels (FIG. 16I) in this case. The states are separated by nearly 0.5 nA, corresponding to ˜1.5 nS conductance (Vt=0.3V). […]

Row | Substance | current peak features on probe withdrawal (cyclic RGD peptide [1]) | fluctuating current component (cyclic RGD peptide [2]; 1 nM) | signal in undiluted Serasub (protein-free serum substitute) (cyclic RGD peptide [3]; 0.1 nM, tunneling bias 200 mV) [LS signals were observed] | conductance of current jump (cyclic RGD peptide [3]; Vt=0.3V, 5 nm gap) [nS] | separation of current states (current jumps) (cyclic RGD peptide [3]; Vt=0.3V, 5 nm gap) [nA] | signal in nanopore device (cyclic RGD peptide [2]; 1 nM solution) | signal in fixed-gap device (cyclic RGD peptide [3]; protein added)
1 | αvβ3: ~200 kD αVβ3 extracelluar domain of human integrin, target protein bound by cyclic RGD peptide | many tens of picoamps | about 0.2 nA | 2 | ~1.5 | ~0.5 |  | 
2 | α4β1: homologous, weakly-binding integrin protein used as a control |  |  |  |  |  | no signals are generated | featureless
